Columns and labels:
[1] = test system: Helicobacter pylori NCTC 11637; experiment: In vitro synergistic effect of ST 722 and Bismuth Subcitrate; assay type: cell-based
Method: CBS from the commercially available product De-Nol® (Gist-Brocades, Netherland), i.e. ammonium and potassium double salt of colloidal bismuth citrate hydroxide, was utilized by preparing a suspension of 10 mg/ml CBS in 1N NaOH. After diluting 1:10 in Mueller-Hinton broth, 8 serial two-fold dlitutions in the same medium were made. The compound ST 722 was dissolved in Mueller-Hinton broth at a starting concentration of 100 mcg/ml, then 7 serial two-fold dilutions were carried out.
The "in vitro" anti-Helicobacter activity of both CBS and ST 722, alone and in association, was tested by utilizing the strain H. pylori NCTC 11637.
A 24-hour culture of Helicobacter in Columbia agar medium supplemented with Vitox (Oxoid) and 7% defribinated horse blood is washed with Mueller-Hinton broth.
Following densitometric evaluation (reading at 600 nm), the bacterial suspension was adjusted to a concentration of 1.0×10^9 cells/ml and 0.2-ml volumes were distributed into each well of a 96-well U-bottomed microtiter plate.
A 1-μl volume of this bacterial suspension was then distributed, by means of a Steers-type replicator apparatus, into the wells of microtiter plates containing the substances, either alone or in association. The final bacterial inoculum contained approximately 1.0×10^6 bacterial cells.
The procedure described by Garrod et al. (GARROD, L. P. and WATERWORTH, P. M., 1962. Methods of testing combined antibiotic bactericidal action and the significance of the results. J. Clin. Pathol. 15, 328-338) was utilized.
Briefly, 250-μl volumes of each test substance, either alone or admixed in all the possible combinations, were additioned to 4.5 ml of Mueller-Hinton agar containing 5% defribinated horse serum. Volumes of 0.2 ml/well of the resulting solution were distributed into the wells of a microtiter plate, then seeded with 1 μl/well of a standardized bacterial suspension, and finally incubated for 48 hours at 37° C. in a 10% CO2 atmosphere.
In order to evaluate the results obtained with combinations of antibiotics it was utilized the method (KROGSTAD, D. J. and MOELLERING, R. C., 1983. Antimicrobial combinations. In LORIAN, V., Antibiotics in Laboratory Medicine, 15, 537-549) based on the calculation of the Fractional Inhibitory Concentration Index (FIC index).
FIC index is calculated as follows: [formula] Where (A) is the MIC of substance A in the association and (MICA) is the […] of the organism to substance A alone. FICA is the fractional inhibitory concentration of substance A. (B), (MICB) and FICB are defined in the same fashion for substance B.
Based on these criteria, the effect of a combination of 2 substances is referred to as 'synergistic" when the FIC index is ≤0.5, "additive" with a FIC index=1, and "antagonist" when FIC index is >1.

[2] = test system: HEp-2 cells; experiment: HEp-2 cell viability (Propidium Iodine cytofluorimetry); assay type: cell-based, human
Method: The investigation aimed at evaluating the difference in susceptibility to ST 722 of planktonic and sessile Helicobacter cells, using in the latter case an "in vitro" experimental model, which closely resembled the clinical condition occurring "in vivo" in type-B gastritis. […] Additionally, the viability of HEp-2 cells (either infected or not) was evaluated following "in vitro" ST 722 treatment. The degree of cytotoxicity was assessed by cytofiuorimetric analysis of Propidium Iodine-stained HEp-2 cells. […]
The antibacterial and cytotoxic activity of ST 722 against Helicobacter and HEp-2 cells, respectively, was evaluated by using 3 different ST 722 concentrations, namely 0.1, 1.56 (i.e. the MIC value vs. H. pylori NCTC 11637) and 4 mcg/ml. […]
Three and twenty-four hours following ST 722 addition, the cells were trypsinized and harvested by centrifugation at 800 g, The cell pellets were then resuspended in 500 μl PBS and additioned with 6 μl of a 1 mcg/ml Propidium Iodine stock solution in PBS, The same procedure was followed for the control, i.e. HEp-2 cells not infected with H. pylori. The cell suspensions were finally analyzed by means of a FACScan cytofluorimeter.

CCCCCCCCCCCOC(=O)CC(C[N+](C)(C)C)OC(=O)CC(C)C [ST 722, Isovaleryl-L-Carnitine Undecyl Ester Chloride]
MIC ([1]; Helicobacter pylori, NCTC11637, substance alone, H. pylori NCTC 11637, 48 hours, read-out: MIC): 1.56 µg/mL
FIC (fractional inhibitory concentration) ([1]; ST 722 with CBS): 0.12
cytotoxicity versus HEp-2 cells ([2]; 4 mcg/ml (data not shown)): unable to induce detectable cytotoxicity
cytotoxicity versus HEp-2 cells ([2]; Propidium Iodine staining): devoid of any cytotoxicity

Source: patent publication US5498632A, “Esters of acyl carnitines with long-chain aliphatic alcohols and pharmaceutical compositions containing same having antibacterial activity” (Sigma-Tau Industrie Farmaceutiche Riunite S.p.A., priority 1992, dated 1996)
